This is an account of results in US9090600B2, “Fungicidal 4-substituted-3-{phenyl[(heterocyclylmethoxy)imino]methyl}-1,2,4-oxadizol-5(4H)-one derivatives” (BAYER INTELLECTUAL PROPERTY GMBH, priority 2011, dated 2015).

The structures appear in SMILES notation. Marks after values point to notes of the source that are not given here.

For this data set the following is noted: pH 2.7.
As usually defined, the LogP is the decadic logarithm of the partition coefficient of the neutral form, usually between octanol and water. A low value points to a more hydrophilic compound. As for `CCC=CCCCOC(=O)Nc1cccc(CON=C(c2ccccc2)c2noc(=O)n2C)n1` [compound 488], the log partition coefficient (LogP) was 4.78 [a]. As for `COC(=O)C(C)(C)COC(=O)Nc1cccc(CON=C(c2ccccc2)c2noc(=O)n2C)n1` [compound 489], the LogP was 3.65 [a].

As for `C=CCOCCOC(=O)Nc1cccc(CON=C(c2ccccc2)c2noc(=O)n2C)n1` [compound 490], the LogP is 3.37 [a]. The result for `COC(=O)C(C)COC(=O)Nc1cccc(CON=C(c2ccccc2)c2noc(=O)n2C)n1` (centres unmarked) [compound 491] reads 3.33 [a]; that for `CC(C)c1ccc(OC(=O)Nc2cccc(CON=C(c3ccccc3)c3noc(=O)n3C)n2)cc1` [compound 492], 4.67 [a]; that for `Cc1cccc(C)c1OC(=O)Nc1cccc(CON=C(c2ccccc2)c2noc(=O)n2C)n1` [compound 494], 4.2 [a]. In the case of `Cn1c(C(=NOCc2cccc(NC(=O)OCc3ccccc3F)n2)c2ccccc2)noc1=O` [compound 495], the lipophilicity (LogP) was 4.01 [a]. As to `Cn1c(C(=NOCc2cccc(NC(=O)OCCOC3CCCCC3)n2)c2ccccc2)noc1=O` [compound 496], the LogP was 4.31 [a]. As to `Cn1c(C(=NOCc2cccc(NC(=O)OCCCc3cccnc3)n2)c2ccccc2)noc1=O` [compound 497], the LogP was 2.11 [a]. In the case of `Cc1cc(C)cc(COC(=O)Nc2cccc(CON=C(c3ccccc3)c3noc(=O)n3C)n2)c1` [compound 498], the log partition coefficient (LogP) was 4.68 [a].

In the case of `Cn1c(C(=NOCc2cccc(NC(=O)OCC(F)(F)F)n2)c2ccccc2)noc1=O` [compound 500], the log partition coefficient (LogP) was 3.57 [a].

In the case of `Cn1c(C(=NOCc2cccc(NC(=O)OCc3cccc(F)c3)n2)c2ccccc2)noc1=O` [compound 501], the LogP is 4.01 [a]. Turning to `CC(OC(=O)Nc1cccc(CON=C(c2ccccc2)c2noc(=O)n2C)n1)C1CCCC1` (centres unmarked) [compound 502], the LogP was 4.82 [a]. Consider `CCC#CCOC(=O)Nc1cccc(CON=C(c2ccccc2)c2noc(=O)n2C)n1` [compound 503], for which the lipophilicity (LogP) is 3.78 [a]. With `C=C(C)COC(=O)Nc1cccc(CON=C(c2ccccc2)c2noc(=O)n2C)n1` [compound 504] the figure was 3.73 [a]; with `CC=CCCCOC(=O)Nc1cccc(CON=C(c2ccccc2)c2noc(=O)n2C)n1` [compound 505], 4.39 [a]; with `CC(C)CCCCOC(=O)Nc1cccc(CON=C(c2ccccc2)c2noc(=O)n2C)n1` [compound 506], 5.17 [a]. For `CCCC=CCOC(=O)Nc1cccc(CON=C(c2ccccc2)c2noc(=O)n2C)n1` [compound 507], the LogP was 4.56 [a].

For the compound `CC=CCCCOC(=O)Nc1cccc(CON=C(c2ccccc2)c2noc(=O)n2C)n1` [compound 509], the lipophilicity (LogP) is 4.44 [a]. Take `CCCC#CCCOC(=O)Nc1cccc(CON=C(c2ccccc2)c2noc(=O)n2C)n1` [compound 511]: the LogP is 4.31 [a]. As for `CC(=O)OCCCCOC(=O)Nc1cccc(CO/N=C(/c2ccccc2)c2noc(=O)n2C)n1` [compound 514], the LogP was 3.35 [a]. On to `C=CC(=O)OCCOC(=O)Nc1cccc(CO/N=C(/c2ccccc2)c2noc(=O)n2C)n1` [compound 515], for which the lipophilicity (LogP) is 3.21 [a]. In the case of `CSCCCOC(=O)Nc1cccc(CO/N=C(/c2ccccc2)c2noc(=O)n2C)n1` [compound 516], the LogP is 3.68 [a].

Turning to `Cn1c(/C(=N\OCc2cccc(NC(=O)OCCCl)n2)c2ccccc2)noc1=O` [compound 518], the lipophilicity (LogP) is 3.29 [a].

As to `CCC1(COC(=O)Nc2cccc(CO/N=C(/c3ccccc3)c3noc(=O)n3C)n2)COC1` [compound 520], the LogP was 3.27 [a].

On to `Cc1ccccc1OC(=O)Nc1cccc(CO/N=C(/c2ccccc2)c2noc(=O)n2C)n1` [compound 521], for which the lipophilicity (LogP) was 3.96 [a]. Regarding `CC/C=C/CCOC(=O)Nc1cccc(CO/N=C(/c2ccccc2)c2noc(=O)n2C)n1` [compound 522], the lipophilicity (LogP) was 4.46 [a]. For the compound `Cn1c(/C(=N\OCc2cccc(NC(=O)OCCCC3CCCCC3)n2)c2ccccc2)noc1=O` [compound 523], the log partition coefficient (LogP) was 5.71 [a]. For the compound `Cn1c(/C(=N\OCc2cccc(NC(=O)OCC3CCOC3)n2)c2ccccc2)noc1=O` (centres unmarked) [compound 524], the LogP is 2.98 [a]. With `Cn1c(/C(=N\OCc2cccc(NC(=O)OCC3CC=CCC3)n2)c2ccccc2)noc1=O` (centres unmarked) [compound 526] the figure was 4.51 [a]. In the case of `Cn1c(/C(=N\OCc2cccc(NC(=O)OCc3cccs3)n2)c2ccccc2)noc1=O` [compound 527], the LogP was 3.83 [a]. In the case of `Cn1c(/C(=N\OCc2cccc(NC(=O)OCc3ccc(F)cc3)n2)c2ccccc2)noc1=O` [compound 528], the LogP is 3.99 [a]. Consider `Cn1c(/C(=N\OCc2cccc(NC(=O)OCC3COCO3)n2)c2ccccc2)noc1=O` (centres unmarked) [compound 529], for which the LogP was 2.73 [a]. As to `CCCOCCOC(=O)Nc1cccc(CO/N=C(/c2ccccc2)c2noc(=O)n2C)n1` [compound 531], the lipophilicity (LogP) is 3.57 [a]. `COc1ccc(OC(=O)Nc2cccc(CO/N=C(/c3ccccc3)c3noc(=O)n3C)n2)cc1` [compound 532]: the LogP was 3.69 [a]. As to `Cn1c(/C(=N\OCc2cccc(NC(=O)OCCC3CCCC3)n2)c2ccccc2)noc1=O` [compound 533], the lipophilicity (LogP) was 4.9 [a].

Consider `CCC/C=C\COC(=O)Nc1cccc(CO/N=C(/c2ccccc2)c2noc(=O)n2C)n1` [compound 535], for which the LogP was 4.53 [a].

On to `Cn1c(/C(=N\OCc2cccc(NC(=O)OCC(Cl)(Cl)Cl)n2)c2ccccc2)noc1=O` [compound 536], for which the LogP was 4.15 [a].

As to `Cn1c(/C(=N\OCc2cccc(NC(=O)OCCC3CCOCC3)n2)c2ccccc2)noc1=O` [compound 537], the LogP is 3.44 [a]. Regarding `CC/C=C\CCOC(=O)Nc1cccc(CO/N=C(/c2ccccc2)c2noc(=O)n2C)n1` [compound 540], the LogP is 4.44 [a].

For `Cn1c(/C(=N\OCc2cccc(NC(=O)OCC3CCCCC3)n2)c2ccccc2)noc1=O` [compound 541], the log partition coefficient (LogP) was 4.88 [a].

As to `Cn1c(/C(=N\OCc2cccc(NC(=O)OCC[Si](C)(C)C)n2)c2ccccc2)noc1=O` [compound 542], the LogP is 4.88 [a]. As to `Cn1c(/C(=N\OCc2cccc(NC(=O)OCCCCl)n2)c2ccccc2)noc1=O` [compound 544], the LogP is 3.6 [a].

As to `CC(C)OCCOC(=O)Nc1cccc(CO/N=C(/c2ccccc2)c2noc(=O)n2C)n1` [compound 545], the LogP was 3.44 [a].

For `Cc1ccc(COC(=O)Nc2cccc(CO/N=C(/c3ccccc3)c3noc(=O)n3C)n2)cc1` [compound 546], the lipophilicity (LogP) is 4.31 [a]. As for `COC(=O)Nc1cccc(CO/N=C(/c2ccccc2)c2noc(=O)n2C)n1` [compound 547], the LogP is 2.84 [a]. With `CC#CCCOC(=O)Nc1cccc(CO/N=C(/c2ccccc2)c2noc(=O)n2C)n1` [compound 548] the figure was 3.58 [a]; with `Cn1c(/C(=N\OCc2cccc(NC(=O)OCCCC3CC3)n2)c2ccccc2)noc1=O` [compound 549], 4.37 [a]. For the compound `Cn1c(/C(=N\OCc2cccc(NC(=O)OCCCCCl)n2)c2ccccc2)noc1=O` [compound 550], the lipophilicity (LogP) is 3.83 [a]. With `Cn1c(/C(=N\OCc2cccc(NC(=O)OCCF)n2)c2ccccc2)noc1=O` [compound 551] the figure was 2.96 [a].
